Our source for the inhibition values is paper PMC6326728, “eIF2B activator prevents neurological defects caused by a chronic integrated stress response” (eLife, 2019).

The term inhibition denotes the relative decrease from the control value, in per cent.

Holding throughout (test): biochemical
Design in all cases: CEREP panel radioligand binding displacement, % inhibition of control specific binding by 10 uM 2BAct

The target in one test is T1, 5-HT2B (h) (Homo sapiens, UniProt P41595).
T1 construct: gene HTR2B
As to conditions: Type=Agonist radioligand; read-out: % inhibition of Control specific binding. How it is done: (§1) Supplementary file elife-42940-supp1.xlsx: Supplementary file 1. (A) Binding of 2BAct at 10 μM to the CEREP panel of receptors/enzymes/ion channels. Compound binding was calculated as a % inhibition of the binding of a radioactively labeled ligand specific for each target. Results showing inhibition or stimulation higher than 50% are considered to represent significant effects of the test compound. (B) Pharmacokinetic data from 2BAct dosing in mice. (C) GO Biological Processes identified by enrichment analysis of RNA-seq data. (D) List of genes used for enrichment analysis of scRNA-seq data.

Another test has as its target T2, 5-HT2C (h) (Homo sapiens, UniProt P28335).
T2 construct: gene HTR2C
As to conditions: Type=Antagonist radioligand; read-out: % inhibition of Control specific binding. How it is done: as §1

A further test concerns the target T3, 5-HT7 (h) (Homo sapiens, UniProt P34969).
T3 construct: gene HTR7
The conditions noted are these: Type=Agonist radioligand; read-out: % inhibition of Control specific binding. As to the method:
as §1

In the next test the target is T4, BZD (peripheral) (Rattus norvegicus, UniProt P16257).
T4 construct: gene Tspo; peripheral
As to conditions: Type=Antagonist radioligand; read-out: % inhibition of Control specific binding. How it is done: as §1

For a further test, the target named is T5, CCK1(CCKA) (h) (Homo sapiens, UniProt P32238).
T5 construct: gene CCKAR
As to conditions: Type=Agonist radioligand; read-out: % inhibition of Control specific binding. As to the method:
as §1

The next test deals with T6, CGRP (h) (Homo sapiens, UniProt Q16602).
T6 construct: gene CALCRL
As to conditions: Type=Agonist radioligand; read-out: % inhibition of Control specific binding. As to the method: as §1

In the next test the target is T7, EP2 (h) (Homo sapiens, UniProt P43116).
T7 construct: gene PTGER2
As to conditions: Type=Agonist radioligand; read-out: % inhibition of Control specific binding. As to the method:
as §1

For the next test, the target named is T8, ET-A (h) (Homo sapiens, UniProt P25101).
T8 construct: gene EDNRA
As to conditions: Type=Agonist radioligand; read-out: % inhibition of Control specific binding. As to the method: as §1

The next test has as its target T9, GR (h) (Homo sapiens, UniProt P04150).
T9 construct: gene NR3C1
As to conditions: Type=Agonist radioligand; read-out: % inhibition of Control specific binding. As to the method: as §1

The target in another test is T10, H2 (h) (Homo sapiens, UniProt P25021).
T10 construct: gene HRH2
The conditions noted are these: Type=Antagonist radioligand; read-out: % inhibition of Control specific binding. As to the method:
as §1

The target of the next test is T11, M2 (h) (Homo sapiens, UniProt P08172).
T11 construct: gene CHRM2
The conditions noted are these: Type=Antagonist radioligand; read-out: % inhibition of Control specific binding. How it is done: as §1

A further test addresses T12, M5 (h) (Homo sapiens, UniProt P08912).
T12 construct: gene CHRM5
The conditions noted are these: Type=Antagonist radioligand; read-out: % inhibition of Control specific binding. How it is done: as §1

Another test addresses T13, MT2 (ML1B) (h) (Homo sapiens, UniProt P49286).
T13 construct: gene MTNR1B
The conditions noted are these: Type=Agonist radioligand; read-out: % inhibition of Control specific binding. How it is done:
as §1

Another test concerns the target T14, VPAC1 (VIP1) (h) (Homo sapiens, UniProt P32241).
T14 construct: gene VIPR1
The conditions noted are these: Type=Agonist radioligand; read-out: % inhibition of Control specific binding. How it is done: as §1

For another test, the target named is T15, b1 (h) (Homo sapiens, UniProt P08588).
T15 construct: gene ADRB1
The conditions noted are these: Type=Agonist radioligand; read-out: % inhibition of Control specific binding. How it is done:
as §1

A further test addresses T16, dopamine transporter (h) (Homo sapiens, UniProt Q01959).
T16 construct: gene SLC6A3
The conditions noted are these: Type=Antagonist radioligand; read-out: % inhibition of Control specific binding. As to the method:
as §1

Another test deals with T17, m (MOP) (h) (Homo sapiens, UniProt P35372).
T17 construct: gene OPRM1
As to conditions: Type=Agonist radioligand; read-out: % inhibition of Control specific binding. How it is done: as §1

T2 sequence (P28335 whole entry): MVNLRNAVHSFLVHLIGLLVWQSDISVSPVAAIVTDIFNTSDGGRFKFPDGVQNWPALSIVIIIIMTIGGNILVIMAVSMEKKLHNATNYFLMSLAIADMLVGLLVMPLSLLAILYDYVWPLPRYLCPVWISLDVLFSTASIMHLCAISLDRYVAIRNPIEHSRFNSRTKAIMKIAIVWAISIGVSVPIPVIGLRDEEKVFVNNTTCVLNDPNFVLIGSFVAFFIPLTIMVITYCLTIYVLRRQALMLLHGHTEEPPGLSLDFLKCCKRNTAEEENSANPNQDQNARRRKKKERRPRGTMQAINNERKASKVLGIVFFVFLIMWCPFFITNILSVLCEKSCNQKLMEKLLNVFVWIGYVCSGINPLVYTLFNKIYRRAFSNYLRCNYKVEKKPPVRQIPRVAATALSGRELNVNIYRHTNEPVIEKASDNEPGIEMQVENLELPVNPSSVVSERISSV
T1 sequence (P41595 whole entry): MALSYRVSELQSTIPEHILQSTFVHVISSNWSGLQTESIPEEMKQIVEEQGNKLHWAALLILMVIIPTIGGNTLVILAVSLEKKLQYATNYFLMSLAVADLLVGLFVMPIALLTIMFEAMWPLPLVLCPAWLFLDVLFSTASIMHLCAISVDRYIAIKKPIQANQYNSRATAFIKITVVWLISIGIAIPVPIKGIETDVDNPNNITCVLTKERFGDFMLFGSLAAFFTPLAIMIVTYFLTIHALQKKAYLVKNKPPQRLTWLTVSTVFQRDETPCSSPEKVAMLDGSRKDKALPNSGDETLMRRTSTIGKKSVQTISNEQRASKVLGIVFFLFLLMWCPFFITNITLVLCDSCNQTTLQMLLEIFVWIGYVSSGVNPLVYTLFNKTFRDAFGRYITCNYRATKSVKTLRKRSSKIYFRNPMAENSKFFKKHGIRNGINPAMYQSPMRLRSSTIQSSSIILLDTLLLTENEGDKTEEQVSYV
T6 sequence (Q16602 whole entry): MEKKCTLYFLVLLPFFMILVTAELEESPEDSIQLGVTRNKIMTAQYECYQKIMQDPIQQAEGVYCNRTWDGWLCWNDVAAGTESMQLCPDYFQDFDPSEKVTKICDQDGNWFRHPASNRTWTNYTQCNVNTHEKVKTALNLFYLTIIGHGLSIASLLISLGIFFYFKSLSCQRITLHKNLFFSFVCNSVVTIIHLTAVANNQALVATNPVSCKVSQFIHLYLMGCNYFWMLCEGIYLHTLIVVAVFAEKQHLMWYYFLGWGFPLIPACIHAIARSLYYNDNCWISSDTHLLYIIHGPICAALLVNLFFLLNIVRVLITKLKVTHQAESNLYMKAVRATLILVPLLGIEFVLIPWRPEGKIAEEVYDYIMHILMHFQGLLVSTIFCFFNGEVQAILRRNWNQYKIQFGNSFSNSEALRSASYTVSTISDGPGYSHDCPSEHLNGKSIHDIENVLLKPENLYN
T6 sequence (O60894 whole entry partner): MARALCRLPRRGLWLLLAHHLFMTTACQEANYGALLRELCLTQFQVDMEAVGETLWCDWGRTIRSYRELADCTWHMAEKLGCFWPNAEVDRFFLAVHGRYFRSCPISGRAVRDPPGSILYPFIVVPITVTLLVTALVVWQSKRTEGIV
T3 sequence (P34969 whole entry): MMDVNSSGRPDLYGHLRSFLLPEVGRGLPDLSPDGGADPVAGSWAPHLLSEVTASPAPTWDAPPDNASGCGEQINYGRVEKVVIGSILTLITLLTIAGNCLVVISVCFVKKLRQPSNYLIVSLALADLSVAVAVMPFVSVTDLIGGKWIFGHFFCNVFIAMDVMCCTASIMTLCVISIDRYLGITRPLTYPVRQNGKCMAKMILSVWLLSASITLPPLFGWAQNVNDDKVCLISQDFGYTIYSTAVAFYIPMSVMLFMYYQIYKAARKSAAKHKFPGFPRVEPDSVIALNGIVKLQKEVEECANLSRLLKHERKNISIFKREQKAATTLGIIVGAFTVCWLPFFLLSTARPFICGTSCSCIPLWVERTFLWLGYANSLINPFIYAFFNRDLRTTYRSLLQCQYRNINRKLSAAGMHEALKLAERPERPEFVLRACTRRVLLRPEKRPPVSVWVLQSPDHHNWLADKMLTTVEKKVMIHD
T17 sequence (P35372 whole entry): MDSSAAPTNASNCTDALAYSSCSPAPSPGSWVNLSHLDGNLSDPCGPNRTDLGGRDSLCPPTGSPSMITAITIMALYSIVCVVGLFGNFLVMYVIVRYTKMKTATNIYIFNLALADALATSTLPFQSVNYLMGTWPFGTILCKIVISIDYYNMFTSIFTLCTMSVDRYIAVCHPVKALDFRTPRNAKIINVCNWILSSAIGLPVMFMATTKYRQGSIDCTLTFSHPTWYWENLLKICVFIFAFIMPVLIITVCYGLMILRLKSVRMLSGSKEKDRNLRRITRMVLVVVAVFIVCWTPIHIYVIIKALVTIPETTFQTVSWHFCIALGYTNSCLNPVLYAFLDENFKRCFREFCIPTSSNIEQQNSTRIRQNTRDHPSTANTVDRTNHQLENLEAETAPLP
T12 sequence (P08912 whole entry): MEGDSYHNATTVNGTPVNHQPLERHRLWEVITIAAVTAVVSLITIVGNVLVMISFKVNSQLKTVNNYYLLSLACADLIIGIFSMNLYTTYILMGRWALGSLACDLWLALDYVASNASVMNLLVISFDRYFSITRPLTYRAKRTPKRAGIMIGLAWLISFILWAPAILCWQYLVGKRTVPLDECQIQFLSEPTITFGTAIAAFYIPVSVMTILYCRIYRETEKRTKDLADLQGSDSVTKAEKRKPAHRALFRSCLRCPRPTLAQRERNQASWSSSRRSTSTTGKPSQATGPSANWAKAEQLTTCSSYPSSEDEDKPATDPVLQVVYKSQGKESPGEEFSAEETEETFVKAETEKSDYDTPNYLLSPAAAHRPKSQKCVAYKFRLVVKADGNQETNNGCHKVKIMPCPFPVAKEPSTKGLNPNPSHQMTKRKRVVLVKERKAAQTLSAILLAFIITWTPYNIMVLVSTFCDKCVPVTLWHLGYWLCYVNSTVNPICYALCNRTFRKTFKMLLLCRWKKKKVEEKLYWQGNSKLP
T9 sequence (P04150 whole entry): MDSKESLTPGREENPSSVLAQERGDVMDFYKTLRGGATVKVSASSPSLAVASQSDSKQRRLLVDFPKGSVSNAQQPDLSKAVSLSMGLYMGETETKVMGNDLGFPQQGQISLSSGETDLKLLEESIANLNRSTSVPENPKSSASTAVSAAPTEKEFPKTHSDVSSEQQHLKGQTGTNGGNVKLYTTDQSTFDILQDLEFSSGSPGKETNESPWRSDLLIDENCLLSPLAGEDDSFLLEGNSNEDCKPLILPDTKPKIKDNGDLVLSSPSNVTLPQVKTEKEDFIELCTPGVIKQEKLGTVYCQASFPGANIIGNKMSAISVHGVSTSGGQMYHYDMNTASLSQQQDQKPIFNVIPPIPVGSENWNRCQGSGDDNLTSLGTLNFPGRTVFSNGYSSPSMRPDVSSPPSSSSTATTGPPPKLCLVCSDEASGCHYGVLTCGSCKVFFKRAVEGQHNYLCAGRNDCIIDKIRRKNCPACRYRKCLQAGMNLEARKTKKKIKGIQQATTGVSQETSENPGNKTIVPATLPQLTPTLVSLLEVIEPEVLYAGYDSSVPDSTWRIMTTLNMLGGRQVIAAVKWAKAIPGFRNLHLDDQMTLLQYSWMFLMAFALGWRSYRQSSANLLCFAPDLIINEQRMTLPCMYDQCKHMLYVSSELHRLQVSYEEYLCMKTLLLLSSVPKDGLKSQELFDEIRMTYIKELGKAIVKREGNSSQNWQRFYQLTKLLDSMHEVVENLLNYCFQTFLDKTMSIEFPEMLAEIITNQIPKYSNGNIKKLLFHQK
T11 sequence (P08172 whole entry): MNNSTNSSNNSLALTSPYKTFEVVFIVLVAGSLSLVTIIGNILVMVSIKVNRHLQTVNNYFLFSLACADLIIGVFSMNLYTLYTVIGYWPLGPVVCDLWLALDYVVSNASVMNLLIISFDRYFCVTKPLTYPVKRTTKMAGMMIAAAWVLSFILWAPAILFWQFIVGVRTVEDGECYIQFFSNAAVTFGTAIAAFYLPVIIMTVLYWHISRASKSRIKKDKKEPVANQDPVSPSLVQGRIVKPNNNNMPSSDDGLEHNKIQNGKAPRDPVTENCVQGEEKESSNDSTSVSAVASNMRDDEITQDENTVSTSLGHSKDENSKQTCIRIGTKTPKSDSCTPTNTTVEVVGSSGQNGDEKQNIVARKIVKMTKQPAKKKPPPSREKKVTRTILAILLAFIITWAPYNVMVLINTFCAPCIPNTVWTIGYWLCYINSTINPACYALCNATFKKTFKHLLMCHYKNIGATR
T13 sequence (P49286 whole entry): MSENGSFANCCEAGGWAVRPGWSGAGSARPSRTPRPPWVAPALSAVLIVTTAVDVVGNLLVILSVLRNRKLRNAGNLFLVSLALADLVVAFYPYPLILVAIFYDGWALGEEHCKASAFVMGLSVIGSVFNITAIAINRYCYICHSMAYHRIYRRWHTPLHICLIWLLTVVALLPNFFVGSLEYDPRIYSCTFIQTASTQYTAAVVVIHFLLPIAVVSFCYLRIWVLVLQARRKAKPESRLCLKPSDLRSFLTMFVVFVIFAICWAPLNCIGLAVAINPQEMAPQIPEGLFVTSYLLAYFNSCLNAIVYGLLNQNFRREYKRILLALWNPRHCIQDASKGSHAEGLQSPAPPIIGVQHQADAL
T7 sequence (P43116 whole entry): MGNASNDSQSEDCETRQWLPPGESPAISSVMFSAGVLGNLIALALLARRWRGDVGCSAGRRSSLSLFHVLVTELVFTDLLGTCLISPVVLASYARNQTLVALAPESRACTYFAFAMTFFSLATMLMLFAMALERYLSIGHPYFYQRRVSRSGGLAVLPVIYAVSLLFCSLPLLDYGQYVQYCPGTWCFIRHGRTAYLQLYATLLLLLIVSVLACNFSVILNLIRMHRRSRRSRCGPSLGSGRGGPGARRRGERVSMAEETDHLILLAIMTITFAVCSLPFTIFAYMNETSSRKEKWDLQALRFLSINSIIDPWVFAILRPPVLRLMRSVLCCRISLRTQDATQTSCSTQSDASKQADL

As for `O=C(COc1ccc(Cl)c(F)c1)NC12CC(NC(=O)c3cnc(C(F)F)cn3)(C1)C2` [2BAct], the inhibition at 10 µM at 5-HT2B (h) was 8.6%; on 5-HT2C (h), 38.7%; at 5-HT7 (h) it was 3.9%; at BZD (peripheral), 36.2%; on CCK1(CCKA) (h) it was 5.2%; on CGRP (h), -4.8%. The inhibition at 10 µM was -4% at EP2 (h); -5.3% at ET-A (h); 3.2% on GR (h); -17.4% at H2 (h); 4.2% on M2 (h); 11.8% at M5 (h). In addition, the inhibition at 10 µM was -2% on MT2 (ML1B) (h); -9.7% on VPAC1 (VIP1) (h); 7.8% at b1 (h); 53.2% at dopamine transporter (h); 3% on m (MOP) (h).
